The source of these data is patent US20240343699A1, “DERIVATIVES OF SUBSTITUTED MORPHOLINES AND USES THEREOF” (Supernus Pharmaceuticals, Inc., priority 2023, published 2024).

As usually defined, the AUC(0-inf) is the area under the concentration-time curve extrapolated to infinity. What is called Cmax is the highest concentration seen after dosing. The term Tmax denotes the time at which the peak concentration occurs.

In one series the test system is behavioral signature. As to the kind of experiment: SmartCube phenotypic screening (class/subclass and DRFA similarity analysis). The format is in vivo, male C57/B16 mice. The procedure:
A study was conducted to evaluate the CNS-like efficacy of novel test compounds using the SmartCube® System.
Animals. Male C57/B16 mice from Taconic Laboratories (Germantown, NY) were used. Upon receipt, mice were group-housed in OPTIMice® ventilated cages with 4 mice per cage. Mice were acclimated to the colony room for at least one week prior to test, and subsequently tested at approximately 8-9 weeks of age. All animals were examined, handled, and weighed prior to initiation of the study to assure adequate health and suitability and to minimize nonspecific stress associated with manipulation. During the course of the study, 12/12 light/dark cycles were maintained. The room temperature was 20-23° C. with a relative humidity maintained between 30-70%. Chow and water were provided ad libitum for the duration of the study.
Test compounds. All compounds were administered orally at a dose volume of 10 mL/kg, 20 minutes prior to testing. Formulations were prepared fresh on day of testing and dosing was completed within one hour of formulation. Compounds were prepared according to the table below. Twelve mice were used in each treatment group:
SmartCube®. The SmartCube® system is designed to and can successfully measure numerous spontaneous behaviors and response to challenges in the same testing environment. The hardware includes force sensors and a number of aversive stimuli to elicit behavior. Three high-resolution video cameras provide constant 3D view of the mouse in the SmartCube® apparatus (SC) throughout the entire testing period. During the 45-minute test session the mice are exposed to a sequence of challenges. The cubes are cleaned between each run.
Digital videos of the subjects were processed through computer segmentation algorithms to fit geometrical models to each mouse frame image. The resulting fitted parameters were then analyzed using behavioral classifier algorithms to extract behavioral states, such as rearing, locomotion, and immobility. The data obtained in this way was used to define a drug signature for PGI's known reference compounds and establish a therapeutic class signature against which a test sample can be compared.
The data mining effort utilizes several analytical methods including Bayesian probabilistic density models and Decision trees. The algorithms consider ˜2,600 measures including frequency and duration of behavioral states such as grooming, rearing, etc., and many other features obtained during the test session.
Two major types of analyses are routinely conducted: Class and subclass.
Each reference drug was tested at multiple doses appropriate for that drug in mice.
Multiple analyses of the data were performed to quantitatively produce independent predictions of drug class, and drug subclass. The behavioral signatures of the test drugs were evaluated using these classifiers to predict potential therapeutic utility.
The results for the class and subclass analyses are presented as standardized bar charts with percentages that sum to 100 for each dose.
Similarity Analysis Using “Clouds Framework”. The outcome from SmartCube® is a large set of features (behavioral parameters) that can be used for various analyses. […] Therefore, we formed statistically independent combinations of the original features (further referred to as de-correlated features). Each de-correlated feature extracted information from the whole cluster of the original features, so the new feature space would have lower dimensionality. Next, we applied a proprietary feature ranking algorithm to score each feature for its discrimination power (ability to separate the two groups, e.g. vehicle from treatment). Ranking is an important part of our analyses because it weighs each feature change by its relevance. We applied a feature ranking algorithm, derived from support vector in the support vector machine learning method, to rank each feature.

For another series, the system named is prepulse inhibition. The experiment in a line: Prepulse inhibition (PPI) of the auditory startle response, apomorphine-impairment model. To be noted: for % PPI (mean ± SEM): averaged across prepulse levels.
For another series, the system named is sleep/wake and cataplexy. The format is in vivo, male DTA mice. To be noted: amphetamine 2 mg/kg i.p.
The test system of another series is anxiety-like behavior. As to the kind of experiment: Elevated plus maze (EPM). The format is in vivo, male Wistar rats. To be noted: for Closed arm entries / Closed arm returns / Head dips in open arms / Stretch-attend postures / Time in closed arms / Time in open arms / Total arm entries: mean; for % Time in open arms / Open Arm Entries / Total distance travelled: mean ± S.E.M.

Series [1] in a line: PK of S-viloxazine after single PO administration. The settings on record: for Tmax: 40 mg/kg. The procedure: Study Design. […] Food was returned 2 hours post-dose.
Test Article Formulation.

The mark [2] stands for this setting: DRFA dose by dose, maximum (COMPOUND A: 90 and 120 mg/kg).
Where [3] appears, read: vehicle + apomorphine 0.5 mg/kg s.c.
The mark [4] stands for this setting: haloperidol 0.3 mg/kg + apomorphine.
Where [5] appears, read: 15 mg/kg PO 20 min prior to EPM.
[6] abbreviates: 30 mg/kg PO 20 min prior to EPM.
[7] abbreviates: 60 mg/kg PO 20 min prior to EPM.
The mark [8] stands for this setting: S(−)-VLX in plasma, 40 mg/kg PO, fasted rats.
[9] abbreviates: Study 1, 0.5 mg/kg i.p. 30 min before testing.
The mark [10] stands for this setting: Study 2, 0.5 mg/kg i.p. 30 min before testing.

Structures can show the parent of a compound that is named as a salt.

Description for prepulse inhibition: Four standard startle chambers (San Diego Instruments, San Diego, CA) were used. […] The tube is mounted on a plastic frame, under which a piezoelectric accelerometer is mounted, which records and transduces the motion of the tube. Three days before drug testing the experimental subjects were each placed in one of the startle test chambers for a period of 10 minutes (without any startle stimuli) as an initial period of acclimation to the apparatus. Two days before drug testing the animals were again placed in the test chamber and then exposed to 12 startle stimuli and to each prepulse level 3 times (see below). This procedure was done to reduce the highly variable responses to the initial exposures to the startle stimuli as well as to ensure that the prepulse stimuli (alone) had no significant effect on the startle response. One day before drug testing, a full 60 trial PPI test session (as subsequently described for the drug testing experiments, see below) was conducted for all experimental subjects.
On the day of drug testing the rats were transported to the startle chamber room and left undisturbed for at least 30 min. […] After this period, the rats received 12 startle trials, 12 no-stimulus trials, and 12 trials of each of the prepulse/startle trials (see below) for a total of 60 trials. The intertrial interval ranged from 10 to 30 s, and the total session lasted about 25-30 min. The startle trials consisted of single 120 dB white noise bursts lasting 20 ms.
The prepulse inhibition trials consisted of a prepulse (20 ms burst of white noise with intensities of 75, 80, or 85 dB) followed, 100 ms later, by a startle stimulus (120 dB, 20 ms white noise). During the no-stimulus trial, no startle noise was presented, but the movement of the rat was recorded. This represented a control trial for detecting differences in overall activity. The 60 different trials were presented pseudo-randomly, ensuring that each trial was presented 12 times and that no two consecutive trials were identical. The resulting movement of the rat in the startle chamber was measured during 100 ms after startle stimulus onset (sampling frequency 1 kHz), rectified, amplified, and fed into a computer that determined the maximal response that occurred during the 100-ms period. Basal startle amplitude was determined as the mean amplitude of the 12 startle trials. Prepulse inhibition was calculated according to the formula 100−100%×(PPx/P120), in which PPx is the mean of the 12 prepulse inhibition trials (i.e., for each individual prepulse level), and p120 is the basal startle amplitude. The average level of PPI was also calculated (average of the responses to pp75, pp80, or pp85) and analyzed separately.

Regarding `CCOc1ccccc1OCC1CNCCO1` (racemic) [Viloxazine, (R,S)-2-[(2-ethoxyphenoxy)methyl]morpholine, reference compound], the “behavioral activity (class/subclass analysis)” value with behavioral signature (15 mg/kg PO) is “low behavioral activity”; in the series on behavioral signature (30 mg/kg PO) it was “moderate activity”; with behavioral signature (60 and 90 mg/kg PO), “high activity”. Moreover, the proximity to donepezil entry in the series with behavioral signature (setting [2]) was “around 100%”. Moreover, in the series with behavioral signature (setting [2]), the proximity to thioperamide entry was “around 100%”. Besides, the proximity to memantine with behavioral signature (DRFA dose by dose, maximum reached) was found to be 57%.

`CN1CCc2cccc3c2[C@H]1Cc1ccc(O)c(O)c1-3` [APO, apomorphine, reference compound]: in the series on prepulse inhibition (apomorphine 0.5 mg/kg s.c., all three prepulse levels), the “effect on PPI compared to vehicle” value was “significantly (p<0.05) diminished PPI”. For the same compound, in the series on prepulse inhibition (setting [3]), the “Acoustic Startle (AU) (mean ± SEM)” value is listed as 1546.1 ± 260.5 AU and the “% PPI (mean ± SEM)” value was determined as 33.4 ± 5.5 %.

Turning to `C[C@H](N)Cc1ccccc1` [Amphetamine, d-Amphetamine sulfate, reference compound], in the series with sleep/wake and cataplexy, the LMA result is reported as “overall increase in LMA”; the “Levels of C” value is reported as “generally unaffected”; the “W and NREM time” value was “increased W and decreased NREM”; the “latency to sleep onset” value is “increased latency to the onset of both NREM and REM sleep”.

For the compound `O=C(CCCN1CCC(O)(c2ccc(Cl)cc2)CC1)c1ccc(F)cc1` [HAL, haloperidol, reference compound], in the series on prepulse inhibition (setting [4]), the “Acoustic Startle (AU) (mean ± SEM)” value came out at 1774.3 ± 770.6 AU and the “% PPI (mean ± SEM)” value is listed as 55.2 ± 6.3 ^+ %. Besides, the “effect on apomorphine-induced PPI deficit” value with prepulse inhibition (haloperidol 0.3 mg/kg, 75, 80 and 85 dB prepulse levels) is listed as “significantly antagonized the effects of apomorphine on PPI”.

Regarding `CCOc1ccccc1OC[C@@H]1CNCCO1` [S(−)-VLX], in the series on anxiety-like behavior (setting [5]), the Closed arm entries amounted to 7.13, the Closed arm returns turned out to be 2.13, the “Head dips in open arms” value amounted to 1.38 and the Stretch-attend postures was found to be 17.13. For the same compound, in the series on anxiety-like behavior (setting [5]), the “Time in closed arms” value was 289.33 s, the “Time in open arms” value turned out to be 1.08 s, the Total arm entries stood at 7.25 and the “% Time in open arms” value was found to be 0.36 ± 0.36%. Besides, in the series on anxiety-like behavior (setting [5]), the “Open Arm Entries” value is on record as 0.13 ± 0.13 and the Total distance travelled stood at 1334.42 ± 90.911 cm. Besides, in the series with anxiety-like behavior (setting [6]), the Closed arm entries came out at 7.88, the Closed arm returns was 2.75, the “Head dips in open arms” value was found to be 3.38 and the Stretch-attend postures worked out at 19.38. Besides, in the series on anxiety-like behavior (setting [6]), the “Time in closed arms” value is 277.60 s, the “Time in open arms” value is 6.11 s, the Total arm entries was determined as 8.25 and the “% Time in open arms” value is on record as 2.04 ± 1.60%. Further, in the series on anxiety-like behavior (setting [6]), the “Open Arm Entries” value turned out to be 0.38 ± 0.26 and the Total distance travelled was 1334.22 ± 68.23 cm. In the series with anxiety-like behavior (setting [7]), the Closed arm entries is 6.00, the Closed arm returns is 3.50, the “Head dips in open arms” value worked out at 2.88 and the Stretch-attend postures is on record as 16.38. In addition, in the series with anxiety-like behavior (setting [7]), the “Time in closed arms” value was 279.11 s, the “Time in open arms” value came to 6.43 s, the Total arm entries stood at 6.50 and the “% Time in open arms” value worked out at 2.14 ± 1.52%. Besides, in the series on anxiety-like behavior (setting [7]), the “Open Arm Entries” value was 0.50 ± 0.38 and the Total distance travelled was found to be 1350.11 ± 96.17 cm. In addition, the anxiolytic activity result in the series with anxiety-like behavior (S-VLX 15, 30, 60 mg/kg p.o.) is on record as “None of the doses of S-Viloxazine were associated with anxiolytic activity”. In the series on anxiety-like behavior (S-VLX 15, 30, and 60 mg/kg p.o.), the “total distance traveled vs vehicle” value is recorded as “travelled a significantly shorter distance”. Also, in series [1] (setting [8]), the AUC0-last is 3594 ± 1641 ng·h/mL, the total exposure AUC(0-inf) was 3600 ng·h/mL, the AUCExtra was determined as 0.20% and the AUMCExtra is on record as 1.64%. In series [1] (setting [8]), this compound showed a maximum concentration (Cmax) of 2973 ± 1201 ng/mL, an MRT0-inf of 67.2 min, an MRT0-last of 66 ± 6.36 min and a T1/2 of 58.2 ± 16.3 min. Moreover, in series [1] (setting [8]), the Tlast is given as 8.00 h and the Tmax worked out at 25.2 min. Further, the Tmax in series [1] (S(−)-VLX in plasma, 40 mg/kg PO, fasted rats, listed as S-Viloxazine) was 25 ± 8.64 min. In series [1] (after S-Viloxazine 40 mg/kg PO, LLOQ 1.5 ng/mL), the “enantiomer R(+) VLX in plasma” value is “not detectable at any time points”.

With `Cc1ncc2n1-c1ccc(Cl)cc1C(c1ccccc1F)=NC2` [midazolam], in the series with anxiety-like behavior (setting [9]), the Closed arm entries turned out to be 14.13, the Closed arm returns turned out to be 1.38, the “Head dips in open arms” value came to 7.00 and the Stretch-attend postures came to 18.88. In the series with anxiety-like behavior (setting [9]), the “Time in closed arms” value stood at 247.54 s, the “Time in open arms” value stood at 18.47 s, the Total arm entries came out at 16.75 and the “% Time in open arms” value was 6.16 ± 1.96 %. Further, in the series on anxiety-like behavior (setting [9]), the “Open Arm Entries” value was determined as 2.63 ± 0.78 and the Total distance travelled was 2064.55 ± 111.02 cm. Further, in the series on anxiety-like behavior (setting [10]), the Closed arm entries amounted to 13.89, the Closed arm returns was 1.44, the “Head dips in open arms” value is listed as 5.67 and the Stretch-attend postures is listed as 20.33. Further, in the series with anxiety-like behavior (setting [10]), the “Time in closed arms” value was 259.11 s, the “Time in open arms” value amounted to 18.38 s, the Total arm entries is reported as 16.22 and the “% Time in open arms” value came out at 6.13 ± 1.80 %. Moreover, in the series on anxiety-like behavior (setting [10]), the “Open Arm Entries” value came to 2.33 ± 0.60 and the Total distance travelled is 2052.96 ± 791.05 cm. The anxiolytic activity result in the series with anxiety-like behavior (midazolam 0.5 mg/kg i.p., both studies) is recorded as “exhibited anxiolytic activity”.
